{
  "source": "patent US20220339100A1",
  "about": "“THERMOSENSITIVE MODIFIED CHITIN HYDROGEL LOCAL ANESTHETIC-LOADED SUSTAINED-RELEASE ANALGESIA SYSTEM, PREPARATION METHOD AND USE” (Wuhan University, priority 2021, published 2022)",
  "key": {"[1]": {"system": "human neuroblastoma cell lines (SH-SY5Y)", "format": "cell-based", "conditions": "24 h, 5 mM", "protocol": "An in-vitro cytotoxicity test was performed on a ropivacaine-containing drug-loaded sustained-release system by using neuroblastoma cell line (SH-SY5Y) cells. Ropivacaine hydrochloride was dissolved into a PBS buffer to prepare a 10 mM ropivacaine solution, and the ropivacaine solution was diluted with a cell culture medium to prepare a cell culture medium with a concentration gradient of 0.5-5 mM in ropivacaine group; cell culture medium solutions containing HPCH2% and HA0.5% as well as a ropivacaine concentration of 10 mM were prepared at a low temperature and gelled at 37° C., and then a cell culture medium containing corresponding gel sustained-release systems and a ropivacaine concentration of 10 mM was prepared. SH-SY5Y cells were inoculated in a 96 well plate at a 10^4/mL cell density and normally cultured in a constant-temperature incubator for 24 h. Then, the above cell culture mediums containing pure drugs and drug gels were respectively added to be cultured for 24 h. The relative living cell numbers were tested by a Cell Counting Kit 8 (CCK-8) assay (FIG. 2)."}, "[2]": {"system": "sciatic nerve of SD rats", "experiment": "ultrasound-guided sciatic nerve block model, sensory block by hot plate method", "format": "in vivo, rat", "conditions": "0.5 mL around sciatic nerve", "protocol": "In order to evaluate the in-vivo analgesic effect of the drug-loaded sustained-release system, an ultrasound-guided sciatic nerve block model was used. Various sustained-release injection formulations containing ropivacaine were injected around the sciatic nerve of the right hind limb of SD rats under the guidance of ultrasound, and the nerve blocking effect was observed. The rats were anesthetized with 2% isoflurane and placed in a prone position. […] Then, the sensory and motor block of the right hind limbs of the rats were evaluated by a hot plate method and motor block 4-point method, respectively. […]\nOperation with hot plate method: the rats were placed on a preheated metal surface (55±0.5° C.), which was surrounded by a cylindrical Plexiglas wall (20 cm high and 28 cm in diameter) to limit the movement of the rats. […] This time was recorded as the basic thermal latency (baseline) time of rats (tested 2 days before the beginning of the experiment), which was generally about 3-5 s, and the rats with too short or too long baseline time were excluded. In order to prevent tissue injury, if the rats still have no pain response after 20 s, the rats were taken out and the time was recorded as 20 s. […] The test data were expressed as percentage of maximum possible effect (MPE %) with the calculation formula as follows: […]"}, "[3]": {"experiment": "in-vitro cumulative drug release in PBS (dialysis bag, UV 263 nm)", "format": "physicochemical", "conditions": "within 6 hours, 37° C., 100 rpm, same drug content as 2.0% system", "protocol": "1 ml of the above dispersion (suspension) was sucked with a precision syringe at 4° C. and put into a dialysis bag (molecular weight cut off: 8000-14000 Da), then the dialysis bag was put into a centrifuge tube which was equipped with 30 ml of PBS solution and placed in a 37° C. constant-temperature water-bath shaker that was vibrated at 100 rpm, samples were taken at different time. 2 ml of PBS solution was taken every time to be used as a sample supplemented with 2 mL of fresh PBS solution, the taken sample was analyzed by ultraviolet-visible spectrophotometry, the PBS solution was used as blank control, and a wavelength was detected as 263 nm. According to a standard curve of ropivacaine, the drug concentration of ropivacaine was calculated and a cumulative release curve was plotted. Three samples in each group were set for repetition. FIG. 1 is an in-vitro cumulative release curve of 2.0% R-HPCH-HA hydrogel sustained-release system represented by a 2.0% ropivacaine hydrochloride-loaded, wherein pure drugs (R) with the same drug content and an HPCH carrier (no hyaluronic acid, R-HPCH group) alone with the same drug content are used as control group. […] Thus, the injectable hydrogel drug delivery system comprising auxiliary component hyaluronic acid is benefit to the long-lasting local analgesia."}},
  "note": "Where a name gives a salt, the structure may show the parent alone.",
  "data": [
    {"smiles": "CCCN1CCCC[C@H]1C(=O)Nc1c(C)cccc1C", "note": "[ropivacaine, ropivacaine hydrochloride]", "values": [
      {"measurement": "cell viability", "setting": "[1]", "value": 37.2, "unit": "%"},
      {"measurement": "time after which MPE value came back to the normal baseline", "setting": "[2]", "value": 6, "unit": "h"},
      {"measurement": "cumulative release rate of ropivacaine", "setting": "[3]", "value": "exceeds 80%"}
    ]}
  ]
}
